Measurements reported in article PMC6874530, “Structural analysis identifies an escape route from the adverse lipogenic effects of liver X receptor ligands” (Communications Biology, 2019).
Like-named read-outs stand apart in the source and are kept apart here.

Assays:
LXRβ LBD = target: T1, LXRβ LBD (Homo sapiens, UniProt P55055); experiment: biochemical
T1 sequence (P55055 215-460 limits assumed): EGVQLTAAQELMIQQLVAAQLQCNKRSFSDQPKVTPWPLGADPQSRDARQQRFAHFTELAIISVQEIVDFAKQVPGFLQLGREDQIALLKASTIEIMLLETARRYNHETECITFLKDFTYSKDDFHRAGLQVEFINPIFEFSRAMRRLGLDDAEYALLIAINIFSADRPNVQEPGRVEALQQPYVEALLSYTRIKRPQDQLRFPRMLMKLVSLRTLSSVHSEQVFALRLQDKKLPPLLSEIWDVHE
Source text: The compounds were run in triplicate (binding assay) or in quadruplicate (transactivation assay). Standard deviations are indicated for individual experiments run more than once.

LXRβ = target: T2, LXRβ (Homo sapiens, UniProt P55055); experiment: Gal4 one hybrid reporter gene (transactivation) assay in U2OS cells, LXRβ; format: cell-based; settings: for Emax: U2OS, 40 h, read-out: LXRβ transactivation Agonist efficacy, %; for Potency-based LXRβ selectivity over LXRα: Gal4 reporter gene assays
T2 construct: expression vectors pSG5-Gal4-LXRα LBD or pSG5-Gal4-LXRβ LBD; expressed in transfected cells; host or cells: U2OS osteosarcoma cells
T2 sequence (P55055 222-460 limits assumed): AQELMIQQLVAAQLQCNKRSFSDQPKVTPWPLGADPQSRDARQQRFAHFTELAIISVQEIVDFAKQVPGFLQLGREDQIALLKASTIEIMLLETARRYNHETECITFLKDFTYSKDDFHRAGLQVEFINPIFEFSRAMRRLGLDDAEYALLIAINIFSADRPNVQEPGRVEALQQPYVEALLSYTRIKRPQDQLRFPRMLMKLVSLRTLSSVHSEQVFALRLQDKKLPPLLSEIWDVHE
Experimental: (§1) Transactivation assays were performed in U2OS osteosarcoma cells (ATCC, USA). […] Ligands were added at ten different concentrations 2 h post transfection and the luciferase activity was measured after 40 h.

Abca1 mRNA in intestine = experiment: intestinal Abca1 mRNA induction in C57BL/6 mice (Emax model); format: in vivo, mouse; settings: for ED50: Mus musculus
Experimental: All procedures involving animals were conducted in accordance with accepted standards of good animal practice and approved by the respective local animal ethics committees (Gothenburg region Local Ethics Review Committee on Animal experiments and University of Virginia Animal Care and Use Committee). Male C57BL/6JOlaHsd mice were retrieved from Harlan Laboratories (Horst, The Netherlands) around 7 weeks of age. In the studies with BMS-852907, male 8-week C57BL/6J mice (Jackson Laboratories) were used. Mice were given ad libitum access to water and standard rodent chow during the studies.
Solid compounds were solubilized in PEG400/Ethanol/Solutol/Water solution (36.3/9.1/4.6/50%). Compounds were given daily by oral gavage, 5 ml kg^−1, at doses ranging from 0.1 to 100 μmol kg^−1 of body weight for 4 days. Animals were terminated 3 h after the last dose.
At termination, the whole-blood volume was drawn from isoflurane-anesthetized mice via an incision in the carotid artery into EDTA blood tubes (S-Monovette®, EDTA KE/1.3 mL, Sarstedt, Nümbrecht, Germany or BD Microtainers®, Benton, Dickinson and Company, Franklin Lakes, New Jersey, USA). Blood samples were placed on ice and centrifuged within an hour (15 min, 2500 × g, 4 °C or 5 min, 16000 × g, 4 °C). The plasma was then dispensed in separate tubes and kept at −80 °C for later analysis of compound concentration and TG levels. For the analysis of intestinal Abca1 transcript levels, a 3–5-mm long segment of the duodenum was excised and cleared from any gut contents. Tissues were instantly snap frozen in liquid nitrogen and stored at −80 °C.
Snap-frozen intestinal tissues were quickly disrupted in QIAzol® (Qiagen, Hilden, Germany) or PureZOL™ (Bio-Rad Laboratories, Hercules, California, USA) by using a bead tissue homogenizer. Lysates were mixed with chloroform and centrifuged at 6000 × g for 15 min at 4 °C. Total RNA was purified from the upper aqueous phase on the ABI PRISM™ 6100 Nucleic Acid PrepStation (Applied Biosystems, Foster City, USA) or by using the RNeasy kit® (QIAGEN Sciences Inc., Germantown, Maryland, USA) including on-column DNase treatment by using the respective manufacturer’s protocol and reagents. Concentration of total RNA was determined on a NanoDrop™ ND-100 Spectrophotometer (Saveen Werner, Lögstrup, Sweden). The RNA templates were transferred to cDNA by reverse transcription by using the High-Capacity cDNA Reverse Transcription Kit (Applied Biosystems, Foster City, USA) according to the manufacturer’s protocol. Mouse ATP-binding cassette subfamily A member 1 (Abca1) was analyzed by using the forward primer 5′-[…]-3′, reverse primer 5′-[…]-3′, and the dual-labeled probe 5′-6FAM-[…]-TAMRA-3′. Mouse ribosomal protein large P0 (Rplp0, 36b4) was analyzed by using the forward primer 5′-[…]-3′, reverse primer 5′-[…]-3′, and the FAM-labeled probe 5′-[…]-TAMRA-3′. In the study with BMS-852907, RT-qPCR reactions were carried out in separate triplicate wells for Abca1 and Rplp0, respectively, by using 20 ng of cDNA template, 385 nM of the above-mentioned primers, and iQ™ SYBR Green Supermix (Bio-Rad, Hercules, California, USA) on a Bio-Rad MyiQ instrument (Bio-Rad, Hercules, California, USA). In the other studies, 400 nM Abca1 forward and reverse primers, 200 nM Abca1 probe, 200 nM Rplp0 forward and reverse primers, and 100 nM Rplp0 probe were mixed with 15 ng of cDNA template and TaqMan™ Gene Expression Master Mix (Applied Biosystems, Foster City, USA). The RT-qPCR reactions were performed on a 7500 Real-time PCR system (Applied Biosystems, Foster City, USA). Cycle threshold values (Ct) were retrieved from the instrument software. Relative changes in mRNA expression were calculated by using the comparative cycle method (2^−ΔΔCt). […]

LXRα = target: T3, LXRα (Homo sapiens, UniProt Q13133); experiment: Gal4 one hybrid reporter gene (transactivation) assay in U2OS cells, LXRα; format: cell-based; settings: for EC50: U2OS cells, Gal4-LXRα LBD, read-out: LXRα transactivation pEC50 (converted); for Emax: U2OS, 40 h, read-out: LXRα transactivation Agonist efficacy, %
T3 construct: expression vectors pSG5-Gal4-LXRα LBD or pSG5-Gal4-LXRβ LBD; expressed in transfected cells; host or cells: U2OS osteosarcoma cells
T3 sequence (Q13133 209-447 limits assumed): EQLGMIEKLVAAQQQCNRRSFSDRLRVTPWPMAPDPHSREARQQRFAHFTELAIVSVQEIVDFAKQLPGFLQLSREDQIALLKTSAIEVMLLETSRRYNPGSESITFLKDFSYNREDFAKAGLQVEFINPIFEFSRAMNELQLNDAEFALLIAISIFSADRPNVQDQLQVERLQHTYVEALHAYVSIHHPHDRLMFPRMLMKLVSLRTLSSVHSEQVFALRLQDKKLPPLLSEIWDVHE
Experimental: as §1

[1] = Receptor-binding affinity pKi LXRβ, value (SD, n independent experiments)
[2] = binding affinity to the LXRβ LBD
[3] = U2OS cells, Gal4-LXRβ LBD, value (SD, n), read-out: LXRβ transactivation pEC50 (converted)
[4] = maximal activation compared with a reference full agonist, value (SD, n)
[5] = po, read-out: Abca1 mRNA induction in intestine Attributed class
[6] = oral gavage daily for 4 days, C57BL/6 mice, (% RSE), read-out: Abca1 mRNA induction in intestine ED50

SMILES | Ki (LXRβ LBD; [1]) [nM] | Ki (LXRβ LBD; [2]) [nM] | EC50 (LXRβ; [3]) [nM] | Emax (LXRβ; [4]) [%] | class of intestinal Abca1 induction (Abca1 mRNA in intestine) | ED50 (Abca1 mRNA in intestine; [5]) [µmol/kg] | ED50 (Abca1 mRNA in intestine; [6]) [µmol/kg] | EC50 (LXRα; value (SD, n)) [nM] | Emax (LXRα; [4]) [%] | Potency-based LXRβ selectivity over LXRα (LXRβ) [fold] | EC50 (LXRβ; read-out: potency in LXRβ-based assay) [nM] | agonist activity in the Gal4 reporter gene assay, LXRβ (LXRβ) | agonist activity in the Gal4 reporter gene assay, LXRα (LXRα) | Potency-based LXRα selectivity over LXRβ (LXRα; Gal4 reporter gene assays) [fold] | Emax (LXRβ) [%] | LXRβ transactivation Agonist efficacy, % (LXRβ; [4]) | LXRα transactivation Agonist efficacy, % (LXRα; [4])
CN(C)C(=O)c1cccc(CCCCNC2=C(c3ccccc3)S(=O)(=O)N(C(C)(C)C)C2=O)c1 [AZ1] | 2.51 | 2 | 30.9 | 76 | high ABCA1 | ≤ 11.3 | < 30 | 110 | 102 |  |  |  |  |  |  |  | 
CC(CCCc1cccc(S(N)(=O)=O)n1)NC1=C(c2ccccc2)S(=O)(=O)N(C(C)C)C1=O (stereo not shown) [AZ2] | 3.72 |  | 8.71 | 97.3 |  | ≤ 11.3 | 9.64 | 77.6 | 111 | 11 |  |  |  |  |  |  | 
CC(C)N1C(=O)C(NCCCCc2cccc(S(N)(=O)=O)n2)=C(c2ccccc2)S1(=O)=O [AZ3] | 17.4 | 4 | 75.9 | 94.3 |  | ≤ 11.3 | 1.49 | 813 | 142 | 9 | < 100 |  |  |  |  |  | 
CC(C)(C)N1C(=O)C(NC2CCN(c3ncc(CC(=O)O)cc3Cl)CC2)=C(c2ccccc2)S1(=O)=O [AZ4] | 33.1 |  | 148 | 110 |  | ≤ 11.3 | 5.65 | 427 | 103 |  |  |  |  |  |  |  | 
CN(C)C(=O)c1cnc(N2CC[C@@H](CNC3=C(c4ccccc4)S(=O)(=O)N(C(C)(C)C)C3=O)C2)c(Cl)c1 [AZ5] | 77.6 |  | 97.7 | 66.5 | low ABCA1 inducers | > 11.3 | 17.2 | 1070 | 60.5 | 11 |  |  |  |  |  |  | 
CC(C)N1C(=O)C(NC2CCN(c3ncc(CC(=O)O)cc3Cl)CC2)=C(c2ccccc2)S1(=O)=O [AZ6] | 162 |  | 617 | 95.3 | high ABCA1 inducers | ≤ 11.3 | 11.3 | 1230 | 87.8 |  |  |  |  |  |  |  | 
CC(C)(C)N1C(=O)C(Cc2ccccc2)=C(NC2CCN(c3ncc(CC(=O)O)cc3Cl)CC2)C1=O [AZ7] | 105 |  | 537 | 104 | high ABCA1 | ≤ 11.3 | < 30 | 1100 | 85.3 |  |  |  |  |  |  |  | 
O=C1C(Cc2ccccc2)=C(NCCCCc2ccccc2)C(=O)N1Cc1ccccc1 [AZ8] | 47.9 |  | 1290 | 102 | low ABCA1 inducers | > 11.3 | 341 | 1740 | 91.5 |  |  |  |  |  |  |  | 
CC(C)(O)c1cn(-c2ccc(-c3cc(F)c(CO)c(S(C)(=O)=O)c3)cc2F)c(C(C)(C)c2c(Cl)cccc2Cl)n1 [BMS-852927] | 2.63 | 3 | > 20000 |  |  | ≤ 11.3 | 2.1 |  |  |  |  | No signal was observed | No signal was observed |  |  |  | 
O=C(O)Cc1ccc(CNC(=O)[C@@H]2Cc3ccccc3N2S(=O)(=O)c2ccc(-c3ccccc3C(F)(F)F)cc2)cc1 [F1, reference compound] | 36.3 |  | 3890 | 105 | high ABCA1 | ≤ 11.3 | < 30 | 562 | 84 |  |  |  |  | 7 |  |  | 
O=C(O)Cc1cccc(OCCCN(Cc2cccc(C(F)(F)F)c2Cl)CC(c2ccccc2)c2ccccc2)c1 [GW3965, reference compound] | 24 |  | 347 |  |  | ≤ 11.3 | 0.969 | 1100 | 93.5 |  |  |  |  |  | 77.1 |  | 
O=S(=O)(c1ccccc1)N(CC(F)(F)F)c1ccc(C(O)(C(F)(F)F)C(F)(F)F)cc1 [T0901317, reference compound] |  |  |  |  |  | ≤ 11.3 | 4.11 |  |  |  |  |  |  |  |  | 95.5 (6.4, n = 2) % | 100.8 (7.4, n = 4) %
